Experimental data as given in patent US8273737B2, “Quinolizidinone M1 receptor positive allosteric modulators” (Merck Sharp & Dohme Corp., priority 2008, dated 2012).

molecular target: T1, acetylcholine muscarinic M1 receptor (Homo sapiens, UniProt P11229); experiment: muscarinic FLIPR assay: potentiation of acetylcholine-stimulated intracellular Ca2+ in CHOnfat/hM1 cells; format: cell-based; details: 4 min preincubation, then EC20 acetylcholine (3 nM final), read-out: IP Value (inflection point)
T1 construct: expressed in transfected cells; host or cells: CHOnfat (CHO cells, Geneticin-selected)
T1 sequence (P11229 1-460): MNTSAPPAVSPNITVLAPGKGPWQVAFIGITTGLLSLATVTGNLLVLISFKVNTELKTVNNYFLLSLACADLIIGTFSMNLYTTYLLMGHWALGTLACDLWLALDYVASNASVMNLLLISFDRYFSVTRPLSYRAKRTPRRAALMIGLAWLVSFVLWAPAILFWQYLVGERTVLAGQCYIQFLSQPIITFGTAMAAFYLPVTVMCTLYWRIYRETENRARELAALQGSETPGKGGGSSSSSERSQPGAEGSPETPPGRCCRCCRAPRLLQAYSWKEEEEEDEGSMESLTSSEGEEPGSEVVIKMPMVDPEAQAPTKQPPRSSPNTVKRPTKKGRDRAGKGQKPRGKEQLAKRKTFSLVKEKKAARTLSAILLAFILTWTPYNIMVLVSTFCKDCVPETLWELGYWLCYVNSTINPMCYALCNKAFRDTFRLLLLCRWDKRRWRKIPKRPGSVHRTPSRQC
Experimental: The assay studies the effect of one or several concentrations of test compounds on basal or acetylcholine-stimulated Ca^2+ levels using FLIPR.
Compounds are prepared and subjected to a preincubation period of 4 min. Thereafter, a single EC20 concentration of acetylcholine is added to each well (3 nM final). The intracellular Ca^2+ level of each sample is measured and compared to an acetylcholine control to determine any modulatory activity.
Cells: CHOnfat/hM1, hM2, hM3 or hM4 cells are plated 24 hr before the assay at a density of 18,000 cells/well (100 μL) in a 384 well plate. CHOnfat/hM1 and CHOnfat/hM3 Growth Medium: 90% DMEM (Hi Glucose); 10% HI FBS; 2 mM L-glutamine; 0.1 mM NEAA; Pen-Strep; and 1 mg/ml Geneticin, are added. For M2Gqi5CHOnfat and M4Gqi5CHOnfat cells, an additional 600 μg/ml hygromycin is added.
Equipment: 384 well plate, 120 μL addition plate; 96-well Whatman 2 ml Uniplate Incubator, 37° C., 5% CO2; Skatron EMBLA-384 Plate Washer; Multimek Pipetting System; Genesis Freedom 200 System; Mosquito System; Temo Nanolitre Pipetting System; and FLIPR^384 Fluorometric Imaging Plate Reader System are used.
Buffers. Assay Buffer: Hanks Balanced Salt Solution, with 20 mM Hepes, 2.5 mM Probenecid (Sigma P-8761) first dissolved in 1N aqueous NaOH, 1% Bovine Serum Albumin (Sigma A-9647). Dye Loading Buffer: Assay Buffer plus 1% Fetal Bovine Serum and Fluo-4AM/Pluronic Acid Mixture. 2 mM Fluo-4AM ester stock in DMSO (Molecular Probes F-14202) Concentration of 2 μM in buffer for a final concentration of 1 μM in Assay. 20% Pluronic Acid Solution stock, with a concentration of 0.04% in Buffer, 0.02% in Assay.
65 μL of 2 mM Fluo-4AM are mixed with 130 μL of 20% Pluronic Acid. The resulting solution and 650 μL FBS is added to the assay buffer for a total volume of 65 mL. Positive Controls: 4-Br-A23187: 10 mM in DMSO; final concentration 10 μM. Acetylcholine: 10 mM in water, working stock at both 20 μM and 30 μM in assay buffer, final concentration of 10 μM. This is used to check the maximum stimulation of the CHOK1/hM1 cells. 20 μM (2×) acetylcholine is added in the preincubation part of the assay, and the 30 μM (3×) stock is added in the second part. (EC20)Acetylcholine: 10 mM in water, working stock of 9 nM (3×), and final concentration in assay is 3 nM. This is used after the preincubation with test compounds. Addition of the EC20 Acetylcholine to each well with a test compound will ascertain any modulator activity. 24 wells contain 3 nM Acetylcholine alone as a control.
Determining Activity of Putative Compounds:
Screening Plate Compounds are titrated in 96-well plates (columns 2-11), 100% DMSO, started at a concentration of 15 mM (150× stock concentration), and 3-fold serial dilutions using Genesis Freedom200 System. Four 96-well plates are combined into a 384-well plate using Mosquito Nanolitre Pipetting System by transferring 1 μl of serial diluted compounds to each well, and 1 mM acetylcholine (100× stock concentration) were added as a control. Using Temo, 49 μl assay buffer is added to each well of the 384-well plate right before assay.
In a 96-well Whatman 2 ml Uniplate, 9 nM Acetylcholine (3×) is pipetted into wells corresponding to the screening compounds and into control wells. The 30 μM acetylcholine control (3×) is added into control wells and the 3× agonist plate is transferred into a 384-well plate.
Cells are washed three times with 100 μL of buffer, leaving 30 μL of buffer in each well. Using Multimek, 30 μL of Dye Loading Buffer is added into each well and incubated at 37° C., 5% CO2 for up to one hr.
After 60 min, the cells are washed three times with 100 μL of buffer, leaving 30 μL of buffer in each well. The cell plate, screening plate, and agonist addition plates are placed on the platform in the FLIPR and the door is closed. A signal test to check background fluorescence and basal fluorescence signal is performed. Laser intensity is adjusted if necessary. […]

Compound	EC50 [nM]
O=C(O)c1cc(CN2CCN(c3ccc(C(F)(F)F)cc3)CC2)c2ccccn2c1=O [Example 1, 4-oxo-1-({4-[4-(trifluoromethyl)phenyl]piperazin-1-yl}methyl)-4H-quinolizine-3-carboxylic acid]	270
O=C(O)c1cc(CN2CCN(c3ccc(Br)cc3)CC2)c2ccccn2c1=O [Example 61]	132
Cn1cc(N2CCN(Cc3cc(C(=O)O)c(=O)n4ccccc34)CC2)cn1 [Example 113]	408
O=C(O)c1cc(CN2CCN(c3cc4ccccc4cn3)CC2)c2ccccn2c1=O [Example 133]	90
O=C(O)c1cc(CN2CCN(c3ccc4sccc4c3)CC2)c2ccccn2c1=O [Example 143]	71
O=C(O)c1cc(CN2CCN(c3ccc4ncsc4c3)CC2)c2ccccn2c1=O [Example 144]	81
N#Cc1cc2cc(N3CCN(Cc4cc(C(=O)O)c(=O)n5ccccc45)CC3)ccc2o1 [Example 145, 1-{[4-(2-cyano-1-benzofuran-5-yl)piperazin-1-yl]methyl}-4-oxo-4H-quinolizine-3-carboxylic acid]	91
N#Cc1ccc(N2CCN(Cc3cc(C(=O)O)c(=O)n4ccccc34)CC2)cc1 [Example 146, 1-{[4-(4-cyanophenyl)piperazin-1-yl]methyl}-4-oxo-4H-quinolizine-3-carboxylic acid]	616
N#Cc1ccc(N2CCN(Cc3cc(C(=O)O)c(=O)n4ccccc34)CC2)cn1 [Example 147, 1-{[4-(6-cyanopyridin-3-yl)piperazin-1-yl]methyl}-4-oxo-4H-quinolizine-3-carboxylic acid]	614
C=Cc1cc(N2CCN(Cc3cc(C(=O)O)c(=O)n4ccccc34)CC2)ccn1 [Example 148, 4-Oxo-1-{[4-(2-vinylpyridin-4-yl)piperazine-1-yl]methyl}-4H-quinolizine-3-carboxylic acid]	380
CSc1cc(N2CCN(Cc3cc(C(=O)O)c(=O)n4ccccc34)CC2)ccn1 [Example 153, 1-({4-[2-(methylthio)pyridine-4-yl]piperazine-1-yl}methyl)-4-oxo-4H-quinolizine-3-carboxylic acid]	640
CS(=O)(=O)c1cc(N2CCN(Cc3cc(C(=O)O)c(=O)n4ccccc34)CC2)ccn1 [Example 154]	1650
CN1CCN(Cc2cc(C(=O)O)c(=O)n3ccccc23)C(c2cccc(F)c2)C1=O (stereo not drawn) [Example 155, 1-{[2-(3-fluorophenyl)-4-methyl-3-oxopiperazin-1-yl]methyl}-4-oxo-4H-quinolizine-3-carboxylic acid]	4900
O=C(O)c1cc(CN2CCN(c3ccccc3)C(=O)C2c2cccc(F)c2)c2ccccn2c1=O (stereo not drawn) [Example 160, 1-{[2-(3-fluorophenyl)-3-oxo-4-phenylpiperazin-1-yl]methyl}-4-oxo-4H-quinolizine-3-carboxylic acid]	119
O=C(O)c1cc(CN2CCOCC2)c2ccccn2c1=O [Example 179, 1-(morpholin-4-ylmethyl)-4-oxo-4H-quinolizine-3-carboxylic acid]	6900
